The values below come from patent publication US20230142077A1, “COMPOSITION FOR PROMOTING ANGIOGENESIS USING LIQUID TYPE PLASMA AND METHOD FOR PROMOTING ANGIOGENESIS USING SAME” (AJOU UNIVERSITY INDUSTRY-ACADEMIC COOPERATION FOUNDATION, priority 2021, published 2023).

Common to all, as to format: cell-based, Human
One experiment relates to MMP-2. Briefly: Gelatin zymogram analysis. Particulars: L-NMMA with NTS, FIG. 6F. The protocol: Matrix metalloproteases were analyzed using a known gelatin zymography method. The cells according to Example 2-1 were cultured in a 6-well plate (Corning Scientific, Rochester, N.Y., USA) and treated with NTS (60 sec/ml) or a vehicle control. Thereafter, the supernatant (100 μl) of each sample was mixed with 1 μl of 100 mM 4-aminophenylmercuric acetate (Sigma-Aldrich), and the sample was incubated at 37° C. for 1 hour. After each sample was placed in a sample buffer (excluding 2-mercaptoethanol) for 10 minutes, the samples were electrophoresed on an a 8% polyacrylamide gel containing 1% gelatin.
The gel was incubated at room temperature for 60 minutes in a regeneration buffer, and then incubated in 100 ml of a development buffer at 37° C. with gentle shaking. Thereafter, the gel was stained with Coomassie Brilliant Blue for 3 hours. After destaining with 400 ml of a destaining solution (methanol, 100 ml of acetic acid, 500 ml of distilled water), images were obtained using an image analyzer.

The subject of the next experiment is eNOS (S1177). Description: Western blot, phosphorylated eNOS. Particulars: FIG. 6A. As for the experimental part:
Western blot was performed using a known method. Cells were lysed in a RIPA buffer (Sigma Aldrich) including 150 mM NaCl, 1.0% Nonidet-P 40, 0.5% sodium deoxycholate, 0.1% sodium dodecyl sulfate, 50 mM Tri (pH 8.0), a protease inhibitor cocktail and PhoSTOP (Roche Molecular Biochemicals, Basel, Switzerland).
A primary antibody used in the present experiment was purchased from Cell Signaling (Danvers, Mass., USA) and VE-cadherin, p-LKB1, and LKB1 were purchased from Santa Cruz (Cambridge, UK). A secondary antibody (anti-rabbit IgG or anti-mouse IgG, 1:2000) was purchased from Cell Signaling Technology.
Data in the images was quantified with National Institutes of Health (NIH) ImageJ 1.41q software.
In general terms: Immunoblotting shows a protein as a band on a membrane.

The test system of experiment [1] is intracellular nitric oxide (NO) in HUVECs. Description: Intracellular NO production analysis (DAF-FM probe). Particulars: L-NMMA (10 μM) with NTS, FIG. 6B. The protocol:
Nitric oxide (NO) levels were confirmed by measuring fluorescence changes in 4-amino-5-methylamino-2′,7′-difluorofluorescein diacetate (DAF-FMDA, Thermo Fisher, D23844, Eugene, Oreg., USA) due to oxidation, respectively. Cells were cultured with reagents according to the manufacturer's instructions. Changes in DAF-FM fluorescence were measured by flow cytometry (BD Biosciences) and a fluorescence microscope (EVOS FL Auto, Thermo Fisher) after 24 hours. NG-methyl-L-arginine acetate salt (L-NMMA, Sigma, M7033) was used to suppress the production of nitric oxide (NO).

For another experiment, the system named is VE-cadherin. Description: Immunocytochemical analysis, VE-cadherin. To be noted: NTS+L-NMMA, FIG. 6G. As for the experimental part: Immunocytochemical analysis was performed using a known method. The cells cultured according to Example 2-1 were additionally cultured on coverslips (Thermo Fisher Scientific, Rochester, N.Y., USA) and treated with NTS (60 sec/ml) or a vehicle control.
The coverslips were then treated with polyclonal rabbit anti-LC3B, p-FAK, and VE-Cadherin (1:200; Cell Signaling Technology, Danvers, Mass., USA), incubated for 2 hours, washed with PBS, and then incubated with an Alexa 488-labeled antibody for 1 hour.
Thereafter, after being washed three times with PBS, the slides were stained with Hoechst 33258 (Molecular Probe), and phalloidin (1:50; Molecular Probes, R415) was added thereto for 15 minutes to counterstain nuclei and F-actin. The stained coverslips were washed with PBS, mounted with Vectashield (Vector Laboratories, Inc., Burlingame, Calif., USA), and then analyzed using EVOS FL Auto (Thermo Fisher).

A further experiment concerns HUVEC tube formation. Description: Tube formation analysis on Matrigel. To be noted: L-NMMA (10 μM) with NTS, FIG. 6C. As for the experimental part: HUVEC cells were trypsinized and then seeded onto a 96-well plate (2×10^4/well) pre-coated with 40 μl (10 mg/ml) of growth factor-reduced Matrigel (BD Biosciences, Billerica, Mass.) in an EBM2 medium.
After incubation at 37° C. for 30 minutes, 1 hour, 3 hours, and 6 hours, viable cells were detected by staining with Calcein AM (Trevigen, Gaithersburg, Md.), and then a capillary-like structure was imaged using EVOS FL Auto (ThermoFisher). Data in the images was quantified with National Institutes of Health (NIH) ImageJ 1.41q software.

For the compound `CC(=O)O.CNC(=N)NCCC[C@H](N)C(=O)O` [L-NMMA, NG-methyl-L-arginine acetate salt], the “NTS-activated MMP2” value with MMP-2 was “significantly attenuated”. Besides, in the experiment with eNOS (S1177) (L-NMMA (10 μM) with NTS), the “p-eNOS phosphorylation by NTS” value is “significantly reduced”. Further, the “phosphorylation of eNOS upregulated by NTS” value with eNOS (S1177) (L-NMMA, 1 mM) is “significantly attenuated”. Moreover, in experiment [1], the “intracellular nitric oxide by NTS” value is recorded as “significantly reduced”. In addition, in the experiment with VE-cadherin, the “NTS-induced reduction of VE-cadherin expression” value is recorded as “significantly attenuated”. In addition, in the experiment on HUVEC tube formation, the “tubular network formed by NTS” value is given as “significantly disrupted”.
